Test results reported in ChEMBL document CHEMBL3400146, “Synthesis and structure-activity relationship studies of novel [6,6,5] tricyclic oxazolidinone derivatives as potential antibacterial agents” (Bioorg Med Chem Lett, 2015).
≈ marks a conversion by molar mass, not a printed value.

Legend:
Staphylococcus aureus [1] = test: Antibacterial activity against Staphylococcus aureus […] incubated for 16 hrs by agar dilution method; assay type: functional
[2] = tested on: Staphylococcus epidermidis; test: Antibacterial activity against methicillin-sensitive Staphylococcus epidermidis incubated for 16 hrs by agar dilution method; assay type: functional
Staphylococcus aureus [3] = test: Antibacterial activity against methicillin-sensitive Staphylococcus aureus incubated for 16 hrs by agar dilution method; assay type: functional
Staphylococcus aureus [4] = test: Antibacterial activity against methicillin-resistant Staphylococcus aureus incubated for 16 hrs by agar dilution method; assay type: functional
Streptococcus pneumoniae = test: Antibacterial activity against penicillin-resistant Streptococcus pneumoniae incubated for 16 hrs by agar dilution method; assay type: functional
[5] = Half life in Sprague-Dawley rat liver microsomes at 0.1 uM in presence of NADPH by LC/MS/MS method; assay type: ADME
[6] = tested on: Staphylococcus epidermidis; test: Antibacterial activity against methicillin-resistant Staphylococcus epidermidis incubated for 16 hrs by agar dilution method; assay type: functional
Enterococcus faecalis = test: Antibacterial activity against Enterococcus faecalis incubated for 16 hrs by agar dilution method; assay type: functional
[7] = Half life in human liver microsomes at 0.1 uM in presence of NADPH by LC/MS/MS method; assay type: ADME
Liver microsome [8] = test: Intrinsic clearance in human liver microsomes assessed per mg protein at 0.1 uM incubated for 7 to 60 mins in presence of NADPH by LC/MS/MS method; assay type: ADME; set-up: unit not given here
Liver microsome [9] = test: Intrinsic clearance in Sprague-Dawley rat liver microsomes assessed per mg protein at 0.1 uM incubated for 7 to 60 mins in presence of NADPH by LC/MS/MS method; assay type: ADME; set-up: unit not given here

SMILES	MIC (Staphylococcus aureus [1]) [µg/mL]	MIC [2] [µg/mL]	MIC (Staphylococcus aureus [3]) [µg/mL]	MIC (Staphylococcus aureus [4]) [µg/mL]	MIC (Streptococcus pneumoniae) [µg/mL]	half-life at 0.1 µM [5] [h]	MIC [6] [µg/mL]	MIC (Enterococcus faecalis) [µg/mL]	half-life at 0.1 µM [7] [h]	CLH (Liver microsome [8])	CLH (Liver microsome [9])
CN1C[C@H](c2ccc(-c3ccc4c(c3)OC[C@H]3[C@H](CO)OC(=O)N43)cn2)OC1=O	0.5 (≈ 1.26 µM)	0.25 (≈ 0.629 µM)	0.5 (≈ 1.26 µM)	0.5 (≈ 1.26 µM)	1 (≈ 2.52 µM)	16.7	0.25 (≈ 0.629 µM)	1 (≈ 2.52 µM)	68.8		
O=C1OCCN1c1ccc(-c2ccc3c(c2)OC[C@H]2[C@H](CO)SC(=O)N32)cn1	> 16	> 16	> 16		> 16			> 16			
N#Cc1ccc(-c2ccc3c(c2)OC[C@H]2[C@H](CO)SC(=O)N32)cn1	> 16	> 16	> 16		> 16			> 16			
O=C1OCCN1c1ccc(-c2ccc3c(c2)SC[C@H]2[C@H](CO)OC(=O)N32)cn1	> 16	> 16	> 16		> 16			> 16			
N#Cc1ccc(-c2ccc3c(c2)SC[C@H]2[C@H](CO)OC(=O)N32)cn1	> 16	> 16	> 16		> 16			> 16			
N#CC1(c2ccc(-c3ccc4c(c3)SC[C@H]3[C@H](CO)OC(=O)N43)cn2)CC1	> 16	> 16	> 16		> 16			> 16			
CC(C)(C)OC(=O)N1CC2C(CO)OC(=O)N2c2ccc(-c3ccc(C4(C#N)CC4)nc3)cc21 (configuration not stated)	> 16	> 16	> 16		> 16			> 16			
N#CC1(c2ccc(-c3ccc4c(c3)NCC3C(CO)OC(=O)N43)cn2)CC1 (configuration not stated)	> 16	> 16	> 16		> 16			> 16			
CC(=O)NC[C@@H]1OC(=O)N2c3ccc(-c4ccc(C(C)=O)nc4)cc3SC[C@@H]12	8 (≈ 20.1 µM)	2 (≈ 5.03 µM)	2 (≈ 5.03 µM)	2 (≈ 5.03 µM)	2 (≈ 5.03 µM)		2 (≈ 5.03 µM)	4 (≈ 10.1 µM)			
COc1ccc(-c2ccc3c(c2)SC[C@H]2[C@H](CNC(C)=O)OC(=O)N32)cn1	8 (≈ 20.8 µM)	4 (≈ 10.4 µM)	8 (≈ 20.8 µM)	4 (≈ 10.4 µM)	4 (≈ 10.4 µM)		4 (≈ 10.4 µM)	8 (≈ 20.8 µM)			
CC(=O)NC[C@@H]1OC(=O)N2c3ccc(-c4ccc(F)nc4)cc3SC[C@@H]12	4 (≈ 10.7 µM)	2 (≈ 5.36 µM)	4 (≈ 10.7 µM)	2 (≈ 5.36 µM)	2 (≈ 5.36 µM)		2 (≈ 5.36 µM)	4 (≈ 10.7 µM)			
CC(=O)NC[C@@H]1OC(=O)N2c3ccc(-c4ccc(C#N)nc4)cc3SC[C@@H]12	8 (≈ 21 µM)	4 (≈ 10.5 µM)	4 (≈ 10.5 µM)	4 (≈ 10.5 µM)	2 (≈ 5.26 µM)		4 (≈ 10.5 µM)	2 (≈ 5.26 µM)			
CC(=O)NC[C@@H]1OC(=O)N2c3ccc(-c4ccc(N5CCOC5=O)nc4)cc3SC[C@@H]12	4 (≈ 9.08 µM)	2 (≈ 4.54 µM)	4 (≈ 9.08 µM)	2 (≈ 4.54 µM)	1 (≈ 2.27 µM)	6.13	2 (≈ 4.54 µM)	4 (≈ 9.08 µM)	10.1	3.47	5.71
CC(=O)NC[C@@H]1OC(=O)N2c3ccc(-c4ccc(C5(C#N)CC5)nc4)cc3SC[C@@H]12	4 (≈ 9.51 µM)	2 (≈ 4.76 µM)	4 (≈ 9.51 µM)	2 (≈ 4.76 µM)	2 (≈ 4.76 µM)		2 (≈ 4.76 µM)	4 (≈ 9.51 µM)			
COc1ccc(-c2ccc3c(c2)SC[C@H]2[C@H](CNC(C)=S)OC(=O)N32)cn1	4 (≈ 9.96 µM)	4 (≈ 9.96 µM)	4 (≈ 9.96 µM)	4 (≈ 9.96 µM)	2 (≈ 4.98 µM)		4 (≈ 9.96 µM)	8 (≈ 19.9 µM)			
CC(=S)NC[C@@H]1OC(=O)N2c3ccc(-c4ccc(F)nc4)cc3SC[C@@H]12	8 (≈ 20.5 µM)	2 (≈ 5.14 µM)	8 (≈ 20.5 µM)	2 (≈ 5.14 µM)	1 (≈ 2.57 µM)		1 (≈ 2.57 µM)	2 (≈ 5.14 µM)			
CC(=S)NC[C@@H]1OC(=O)N2c3ccc(-c4ccc(C#N)nc4)cc3SC[C@@H]12	8 (≈ 20.2 µM)	4 (≈ 10.1 µM)	8 (≈ 20.2 µM)	4 (≈ 10.1 µM)	4 (≈ 10.1 µM)		4 (≈ 10.1 µM)	> 16			
CC(=S)NC[C@@H]1OC(=O)N2c3ccc(-c4ccc(N5CCOC5=O)nc4)cc3SC[C@@H]12	2 (≈ 4.38 µM)	1 (≈ 2.19 µM)	2 (≈ 4.38 µM)	1 (≈ 2.19 µM)	1 (≈ 2.19 µM)	0.35	1 (≈ 2.19 µM)	1 (≈ 2.19 µM)	0.55	63.4	99.6
CC(=O)NC[C@@H]1OC(=O)N2c3ccc(-c4ccc(N5CCOC5=O)nc4)cc3[S+]([O-])C[C@@H]12 (some centres not stated)	> 16	> 16	> 16		> 16			> 16			
CC(=O)NC[C@@H]1OC(=O)N2c3ccc(-c4ccc(N5CCOC5=O)nc4)cc3S(=O)(=O)C[C@@H]12	> 16	> 16	> 16		> 16			> 16			
CC(=O)NCC1OC(=O)N2c3ccc(-c4ccc(N5CCOC5=O)nc4)cc3N(C(=O)OC(C)(C)C)CC12 (configuration not stated)	> 16	> 16	> 16		> 16			> 16			
CC(=O)NCC1OC(=O)N2c3ccc(-c4ccc(N5CCOC5=O)nc4)cc3NCC12 (configuration not stated)	16 (≈ 37.8 µM)	16 (≈ 37.8 µM)	16 (≈ 37.8 µM)	> 4	4 (≈ 9.45 µM)		> 2	16 (≈ 37.8 µM)			
CN1CC(c2ccc(-c3ccc4c(c3)OC[C@H]3[C@H](CO)SC(=O)N43)cn2)OC1=O (single isomer, unassigned)	> 16	> 16	> 16		> 16			> 16			
CC(=O)NC[C@@H]1OC(=O)N2c3ccc(-c4ccc(C5CN(C)C(=O)O5)nc4)cc3SC[C@@H]12 (single isomer, unassigned)	4 (≈ 8.8 µM)	2 (≈ 4.4 µM)	4 (≈ 8.8 µM)	2 (≈ 4.4 µM)	2 (≈ 4.4 µM)	3.85	2 (≈ 4.4 µM)	4 (≈ 8.8 µM)		0	9.08
CC(=O)NC[C@H]1CN(c2ccc(N3CCOCC3)c(F)c2)C(=O)O1 [LINEZOLID]		2 (≈ 5.93 µM)		1 (≈ 2.96 µM)			2 (≈ 5.93 µM)				
